SMILES strings stand for the structures. “Also recorded” adds a separate entry of the source. Where two headings read alike, the source gives them in different places. A value given as a limit tells only on which side of the number the result lay.

The target in data set [1] is T1, soybean lipoxygenase-1 (Glycine max, UniProt P08170).
T1 sequence (P08170 1-839): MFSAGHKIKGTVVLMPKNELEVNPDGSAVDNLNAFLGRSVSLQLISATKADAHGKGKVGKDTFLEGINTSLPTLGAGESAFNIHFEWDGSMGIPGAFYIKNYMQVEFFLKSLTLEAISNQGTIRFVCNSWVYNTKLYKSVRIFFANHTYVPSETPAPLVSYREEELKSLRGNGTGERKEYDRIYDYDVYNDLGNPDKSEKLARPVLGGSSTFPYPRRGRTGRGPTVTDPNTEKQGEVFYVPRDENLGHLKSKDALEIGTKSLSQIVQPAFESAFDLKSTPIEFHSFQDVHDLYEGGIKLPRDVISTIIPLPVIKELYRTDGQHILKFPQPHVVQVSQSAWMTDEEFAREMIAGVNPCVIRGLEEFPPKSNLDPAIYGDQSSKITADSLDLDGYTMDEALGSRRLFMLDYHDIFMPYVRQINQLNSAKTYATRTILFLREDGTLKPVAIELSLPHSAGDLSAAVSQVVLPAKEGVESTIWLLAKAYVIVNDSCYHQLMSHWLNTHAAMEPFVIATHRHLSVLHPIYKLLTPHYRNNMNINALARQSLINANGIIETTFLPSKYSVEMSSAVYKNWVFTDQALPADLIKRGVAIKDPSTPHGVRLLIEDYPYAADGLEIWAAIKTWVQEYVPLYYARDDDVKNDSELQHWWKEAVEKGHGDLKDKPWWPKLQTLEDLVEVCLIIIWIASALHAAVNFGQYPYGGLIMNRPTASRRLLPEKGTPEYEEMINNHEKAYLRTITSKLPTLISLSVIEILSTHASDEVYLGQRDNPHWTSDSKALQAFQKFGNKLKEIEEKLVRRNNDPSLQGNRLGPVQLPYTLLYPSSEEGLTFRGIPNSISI
Kind of data set: Inhibition of soybean lipoxygenase. Format: biochemical. As for the experimental part: The reaction mixture contained the test compounds dissolved in ethanol and soybean lipoxygenase (250 U/mL) in Tris buffer (pH 9). The reaction was initiated by the addition of sodium linoleate (0.1 mM) and monitored for 7 min at 28 °C, by recording the absorbance of a conjugated diene structure at 234 nm. For the estimation of the type of inhibition, the above experiments were repeated, using sodium linoleate at 1 mM, which is higher than the saturating substrate concentration.

Data set [2] concerns Triton WR1339 (tyloxapol) induced hyperlipidemia. Kind of data set: Triton WR1339 (tyloxapol) induced hyperlipidemia: plasma TC, TG, LDL-C. The following applies: ip, rat plasma, 24 h, tyloxapol 200 mg/kg i.p.; for inhibition in vivo at 50 µmol/kg: dose i.p. 50 µmol/kg; for inhibition in vivo at 150 µmol/kg: dose i.p. 150 µmol/kg; for inhibition in vivo at 300 µmol/kg: dose i.p. 300 µmol/kg; for inhibition in vivo at 500 µmol/kg: dose i.p. 500 µmol/kg. Format: in vivo.

Data set [3] has as its system carrageenan-induced rat paw oedema. Kind of data set: Carrageenan-induced rat paw oedema. Format: in vivo. The following applies: ip, i.p. 0.15 mmol/kg, 3.5 h post administration, vs controls, read-out: % Oedema Reduction. As for the experimental part: An aqueous solution of carrageenan was prepared (1% w/v) and 0.1 mL of this was injected i.d. into the right hind paw of female rats; the left paw served as control. The tested compounds (suspended in water with a few drops of Tween 80) were given intra peritoneally (i.p.) (0.15 mmol/kg) 5 min prior to the carrageenan injection. After 3.5 h the hind paws were weighed separately. The produced oedema was estimated as paw weight increase.
(In general: Carrageenan injected into the paw causes an acute inflammation.)

The subject of data set [4] is rat hepatic microsomal membrane lipid peroxidation. Kind of data set: Inhibition of rat hepatic microsomal membrane lipid peroxidation induced by ferrous ascorbate. The following applies: for Antioxidant activity (lipid peroxidation and DPPH experiments): lipid peroxidation inhibition and DPPH interaction, result in words. It is filed as biochemical. As for the experimental part: The incubation mixture contained heat-inactivated rat hepatic microsomal fraction, ascorbic acid (0.2 mM) in Tris–HCl/KCl buffer (pH 7.4) and the test compounds dissolved in dimethylsulphoxide. The reaction was initiated by FeSO4 (10 µM) and the mixture was incubated at 37 °C. Aliquots were taken at various time intervals for 45 min. Lipid peroxidation was assessed spectrophotometrically (535 against 600 nm) by the determination of 2-thiobarbituric acid (TBA) reactive material.
On the technique in general: The DPPH test is a chemical assay of radical scavenging.

The nature of data set [5]: Interaction with the stable radical DPPH. The following applies: DPPH 200 µΜ, 30 min incubation. As for the experimental part: Compounds (in absolute ethanol, final concentration 50–200 µM) were added to an equal volume of an ethanolic solution of DPPH (final concentration 200 µM) at room temperature (22 ± 2 °C). Absorbance (517 nm) was recorded after 30 min [22].
The mark [6] stands for this setting: sodium linoleate 0.1 mM, 7 min incubation, read-out: Lipoxygenase IC50.
Setting [7] is: read-out: % Reduction LDL-C (LDL cholesterol).
Setting [8] is: read-out: % Reduction TC (total cholesterol).
The mark [9] stands for this setting: read-out: % Reduction TG (triglycerides).

Regarding `CC(C)(C)c1cc(/C=C/C(=O)O)cc(C(C)(C)C)c1O` [BHA, (E)-3-(3,5-di-tert-butyl-4-hydroxyphenyl)acrylic acid, reference compound], the 50% inhibitory concentration (IC50) (as a rule, the midpoint of a concentration-inhibition curve) in data set [1] (setting [6]) is more than 300 µM.

For `CC(C)Cc1ccc(C(C)C(=O)OC2N=C(c3ccccc3Cl)c3cc(Cl)ccc3NC2=O)cc1` (stereo not shown) [Compound 1, 7-Chloro-5-(2-chlorophenyl)-2-oxo-2,3-dihydro-1H-benzo[e][1,4]diazepin-3-yl 2-(4-isobutylphenyl) propanoate], the melting point (usually the temperature of the solid-liquid transition) lay within 105 to 122 °C. The “Lipoxygenase % Inhibition” value in data set [1] (compound 50 µΜ, sodium linoleate 0.1 mM, 7 min incubation) came out at 14%/50 µΜ. Also, in data set [2] (setting [7]), the inhibition in vivo at 50 µmol/kg was 43% and the inhibition in vivo at 150 µmol/kg stood at 56%. For the same molecule, in data set [2] (setting [8]), the inhibition in vivo at 50 µmol/kg worked out at 44% and the inhibition in vivo at 150 µmol/kg was 82%. In data set [2] (setting [9]), the inhibition in vivo at 50 µmol/kg came out at 57% and the inhibition in vivo at 150 µmol/kg was found to be 65%. Moreover, the inhibition in vivo at 150 µmol/kg in data set [3] came out at 68%.

Consider `COc1ccc2cc(C(C)C(=O)OC3N=C(c4ccccc4Cl)c4cc(Cl)ccc4NC3=O)ccc2c1` (stereo not shown) [Compound 2, 7-Chloro-5-(2-chlorophenyl)-2-oxo-2,3-dihydro-1H-benzo[e][1,4]diazepin-3-yl 2-(6-methoxynaphthalen-2-yl)propanoate], for which the melting point was 136 to 139 °C. Besides, in data set [1] (sodium linoleate 0.1 mM, 7 min incubation), the “Lipoxygenase IC50” value is “-”. Moreover, the inhibition in vivo at 50 µmol/kg in data set [2] (setting [7]) came to 42%. The inhibition in vivo at 50 µmol/kg in data set [2] (setting [8]) came out at 60%. Besides, the inhibition in vivo at 50 µmol/kg in data set [2] (setting [9]) was determined as 71%. Besides, in data set [3], the inhibition in vivo at 150 µmol/kg is 46%.

On to `CC(C(=O)OC1N=C(c2ccccc2Cl)c2cc(Cl)ccc2NC1=O)c1cccc(C(=O)c2ccccc2)c1` (stereo not shown) [Compound 3, 7-Chloro-5-(2-chlorophenyl)-2-oxo-2,3-dihydro-1H-benzo[e][1,4]diazepin-3-yl 2-(3-benzoylphenyl)propanoate], for which the melting point was in the range of 195 to 201 °C. Moreover, in data set [1] (setting [6]), the IC50 was 84 µM. Further, the inhibition in vivo at 150 µmol/kg in data set [3] was 65%.

Take `COc1ccc2c(c1)c(CC(=O)OC1N=C(c3ccccc3Cl)c3cc(Cl)ccc3NC1=O)c(C)n2C(=O)c1ccc(Cl)cc1` (stereo not shown) [Compound 4, 7-Chloro-5-(2-chlorophenyl)-2-oxo-2,3-dihydro-1H-benzo[e][1,4]diazepin-3-yl 2-(1-(4-chlorobenzoyl)-5-methoxy-2-methyl-1H-indol-3-yl)acetate]: the melting point fell in the range of 189 to 191 °C. Also, the IC50 in data set [1] (setting [6]) worked out at 86 µM. Also, the inhibition in vivo at 50 µmol/kg in data set [2] (setting [7]) turned out to be 60%. Besides, the inhibition in vivo at 50 µmol/kg in data set [2] (setting [8]) worked out at 59%. The inhibition in vivo at 50 µmol/kg in data set [2] (setting [9]) is 59%. Besides, the inhibition in vivo at 150 µmol/kg in data set [3] is 67%.

Take `Cc1c(Cl)cccc1Nc1ccccc1C(=O)OC1N=C(c2ccccc2Cl)c2cc(Cl)ccc2NC1=O` (stereo not shown) [Compound 5, 7-Chloro-5-(2-chlorophenyl)-2-oxo-2,3-dihydro-1H-benzo[e][1,4]diazepin-3-yl 2-((3-chloro-2-methylphenyl)amino)benzoate]: the melting point lay in the range of 206 to 207 °C. The “Lipoxygenase % Inhibition” value in data set [1] (compound 100 µΜ, sodium linoleate 0.1 mM, 7 min incubation) was 22%/100 µΜ. Moreover, the inhibition in vivo at 50 µmol/kg in data set [2] (setting [7]) amounted to 48%. For the same molecule, the inhibition in vivo at 50 µmol/kg in data set [2] (setting [8]) is 56%. Further, in data set [2] (setting [9]), the inhibition in vivo at 50 µmol/kg was determined as 57%. For the same molecule, the inhibition in vivo at 150 µmol/kg in data set [3] was 55%.

`O=C(CCCCC1CCSS1)OC1N=C(c2ccccc2Cl)c2cc(Cl)ccc2NC1=O` (stereo not shown) [Compound 6, 7-Chloro-5-(2-chlorophenyl)-2-oxo-2,3-dihydro-1H-benzo[e][1,4]diazepin-3-yl 5-(1,2-dithiolan-3-yl)pentanoate] came in with a melting point of 184 to 189 °C. In data set [1], this molecule had an IC50 of 60 µM. In data set [2] (setting [7]), the inhibition in vivo at 50 µmol/kg was found to be 47% and the inhibition in vivo at 150 µmol/kg came to 60%. For the same molecule, in data set [2] (setting [8]), the inhibition in vivo at 50 µmol/kg was 48% and the inhibition in vivo at 150 µmol/kg was 82%. In data set [2] (setting [9]), the inhibition in vivo at 50 µmol/kg was 39% and the inhibition in vivo at 150 µmol/kg stood at 41%. The “Antioxidant activity (lipid peroxidation and DPPH experiments)” value in data set [4] is “do not express any antioxidant activity; also recorded: inactive”. In addition, the inhibition in vivo at 150 µmol/kg in data set [3] worked out at 39%.

`O=C(Cc1c[nH]c2ccccc12)OC1N=C(c2ccccc2Cl)c2cc(Cl)ccc2NC1=O` (stereo not shown) [Compound 9, 7-Chloro-5-(2-chlorophenyl)-2-oxo-2,3-dihydro-1H-benzo[e][1,4]diazepin-3-yl 2-(1H-indol-3-yl)acetate] came in with a melting point of 257 to 258 °C. The molecule also gave an IC50 in data set [1] of 255 µM. For the same molecule, the “Antioxidant activity (lipid peroxidation and DPPH experiments)” value in data set [4] is given as “do not express any antioxidant activity”. Further, the inhibition in vivo at 150 µmol/kg in data set [3] came to 43%.

In the case of `CC(C)Cc1ccc(C(C)C(=O)O)cc1` (stereo not shown) [Ibuprofen, reference compound], the values for the inhibition in vivo at 300 µmol/kg in data set [2] (setting [7]), in data set [2] (setting [8]) and in data set [2] (setting [9]) were 42%, 41% and 38%, respectively. In data set [3], the inhibition in vivo at 150 µmol/kg stood at 36%.

Regarding `COc1ccc2c(c1)c(CC(=O)O)c(C)n2C(=O)c1ccc(Cl)cc1` [Indomethacin, reference compound], in data set [3], the inhibition in vivo at 150 µmol/kg was 42%.

Turning to `COc1ccc2cc([C@H](C)C(=O)O)ccc2c1` [Naproxen, reference compound], the results for the inhibition in vivo at 500 µmol/kg in data set [2] (setting [7]), in data set [2] (setting [8]) and in data set [2] (setting [9]) were 26%, 53% and 44%, respectively. For the same molecule, in data set [3], the inhibition in vivo at 150 µmol/kg was found to be 11%.

Regarding `Cc1c(Cl)cccc1Nc1ccccc1C(=O)O` [Tolfenamic acid, reference compound], in data set [1] (setting [6]), the half-inhibitory concentration (IC50) was determined as 170 µM. In addition, the inhibition in vivo at 150 µmol/kg in data set [3] was 24%.

Take `Cc1c(C)c2c(c(C)c1O)CCC(C)(C(=O)O)O2` (stereo not shown) [Trolox, 6-hydroxy-2,5,7,8-tetramethylchroman-2-carboxylic acid, reference compound]: the IC50 in data set [1] (setting [6]) was more than 300 µM; in data set [4] (rat hepatic microsomal fraction, ferrous ascorbate, 45 min incubation) it was 25 µM. The figures for the “Percent Interaction with DPPH” value in data set [5] (compound 50 µΜ), in data set [5] (compound 100 µΜ) and in data set [5] (compound 200 µΜ) were 38%, 90% and 92%, respectively.

Values taken from article PMC6767220, “Active Anti-Inflammatory and Hypolipidemic Derivatives of Lorazepam” (Molecules, 2019).
